Data published in ChEMBL document CHEMBL1201862, “PubChem BioAssay data set” (2004).
Activity calls are given as the source filed them.

Key:
[1] = biological target: Glucose-6-phosphate 1-dehydrogenase (Homo sapiens, UniProt P11413); test: human G6PD enzyme inhibitors, dose response, selectivity assay for P. falciparum G6PD inhibitor project, biochemical, fluorescence (AID 504792); type: functional
Beta-galactosidase = Beta-galactosidase (Escherichia coli, UniProt Q8VNN2); test: PubChem AID 485352; type: functional
Chain of Beta-galactosidase (Q8VNN2 whole entry): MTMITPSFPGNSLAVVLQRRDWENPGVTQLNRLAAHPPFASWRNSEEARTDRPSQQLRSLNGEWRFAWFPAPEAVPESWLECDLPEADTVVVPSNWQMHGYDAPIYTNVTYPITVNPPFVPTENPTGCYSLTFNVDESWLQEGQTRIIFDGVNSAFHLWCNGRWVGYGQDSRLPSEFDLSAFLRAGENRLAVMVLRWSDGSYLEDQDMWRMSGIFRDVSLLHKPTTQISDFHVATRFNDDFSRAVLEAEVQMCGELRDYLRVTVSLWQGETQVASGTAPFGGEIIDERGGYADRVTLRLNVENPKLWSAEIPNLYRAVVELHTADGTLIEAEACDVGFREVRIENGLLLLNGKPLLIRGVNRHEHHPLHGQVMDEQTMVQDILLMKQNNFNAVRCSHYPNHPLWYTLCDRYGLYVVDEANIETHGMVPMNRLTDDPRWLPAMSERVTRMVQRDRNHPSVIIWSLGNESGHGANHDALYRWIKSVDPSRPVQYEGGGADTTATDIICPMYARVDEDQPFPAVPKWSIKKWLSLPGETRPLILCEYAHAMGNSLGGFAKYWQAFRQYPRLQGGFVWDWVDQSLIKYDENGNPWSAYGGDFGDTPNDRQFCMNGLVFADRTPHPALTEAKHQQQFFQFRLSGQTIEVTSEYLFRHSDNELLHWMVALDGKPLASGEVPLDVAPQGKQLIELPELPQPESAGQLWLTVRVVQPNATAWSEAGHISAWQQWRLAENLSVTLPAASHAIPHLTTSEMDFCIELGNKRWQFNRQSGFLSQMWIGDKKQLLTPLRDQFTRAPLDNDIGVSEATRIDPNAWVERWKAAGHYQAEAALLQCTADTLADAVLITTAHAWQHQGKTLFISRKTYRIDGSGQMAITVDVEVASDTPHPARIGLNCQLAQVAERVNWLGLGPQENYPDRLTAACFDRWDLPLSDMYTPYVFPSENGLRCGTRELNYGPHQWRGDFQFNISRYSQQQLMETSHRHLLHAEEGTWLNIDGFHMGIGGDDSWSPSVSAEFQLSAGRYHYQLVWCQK

[2] = biological target: T1, Type-1 angiotensin II receptor (Homo sapiens, UniProt P30556); test: AT1 receptor antagonists, dose response, selectivity assay for APJ receptor antagonist project, cell-based, uHTS hits (AID 463214); type: functional;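 also: antagonist potency against angiotensin II stimulated AT1 response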
T1 sequence (P30556 whole entry): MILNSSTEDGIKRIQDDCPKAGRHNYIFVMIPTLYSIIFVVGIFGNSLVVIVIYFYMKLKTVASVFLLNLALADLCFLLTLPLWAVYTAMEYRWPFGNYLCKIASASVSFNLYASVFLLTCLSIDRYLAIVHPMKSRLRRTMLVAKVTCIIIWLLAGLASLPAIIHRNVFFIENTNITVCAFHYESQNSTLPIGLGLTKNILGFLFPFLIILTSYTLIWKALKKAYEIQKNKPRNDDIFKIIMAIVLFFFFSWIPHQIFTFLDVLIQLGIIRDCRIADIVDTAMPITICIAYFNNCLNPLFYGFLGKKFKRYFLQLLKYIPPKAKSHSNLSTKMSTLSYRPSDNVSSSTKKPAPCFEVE

[3] = biological target: T2, Calpain-2 catalytic subunit (Sus scrofa, UniProt P43367); test: pig calpain II inhibitor potency, dose response, biochemical, fluorogenic peptide substrate (AID 1420); type: functional
T2 sequence (P43367 whole entry): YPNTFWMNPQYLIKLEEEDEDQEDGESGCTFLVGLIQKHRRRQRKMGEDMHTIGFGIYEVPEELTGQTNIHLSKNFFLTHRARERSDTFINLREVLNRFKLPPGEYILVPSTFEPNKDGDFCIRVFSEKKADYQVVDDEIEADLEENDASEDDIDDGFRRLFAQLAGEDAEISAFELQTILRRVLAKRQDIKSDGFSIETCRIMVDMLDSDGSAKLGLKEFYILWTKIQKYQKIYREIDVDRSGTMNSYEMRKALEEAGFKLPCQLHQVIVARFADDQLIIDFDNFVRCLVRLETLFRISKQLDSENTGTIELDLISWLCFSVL

[4] = biological target: Induced myeloid leukemia cell differentiation protein Mcl-1 (Homo sapiens, UniProt Q07820); type: functional
[5] = biological target: T3, Replicative DNA helicase DnaB (Mycobacterium tuberculosis, UniProt P9WMR3); test: DnaB intein splicing inhibitors, dose response, biochemical, cell-free fluorescence (AID 449749); type: functional
T3 sequence (P9WMR3 whole entry): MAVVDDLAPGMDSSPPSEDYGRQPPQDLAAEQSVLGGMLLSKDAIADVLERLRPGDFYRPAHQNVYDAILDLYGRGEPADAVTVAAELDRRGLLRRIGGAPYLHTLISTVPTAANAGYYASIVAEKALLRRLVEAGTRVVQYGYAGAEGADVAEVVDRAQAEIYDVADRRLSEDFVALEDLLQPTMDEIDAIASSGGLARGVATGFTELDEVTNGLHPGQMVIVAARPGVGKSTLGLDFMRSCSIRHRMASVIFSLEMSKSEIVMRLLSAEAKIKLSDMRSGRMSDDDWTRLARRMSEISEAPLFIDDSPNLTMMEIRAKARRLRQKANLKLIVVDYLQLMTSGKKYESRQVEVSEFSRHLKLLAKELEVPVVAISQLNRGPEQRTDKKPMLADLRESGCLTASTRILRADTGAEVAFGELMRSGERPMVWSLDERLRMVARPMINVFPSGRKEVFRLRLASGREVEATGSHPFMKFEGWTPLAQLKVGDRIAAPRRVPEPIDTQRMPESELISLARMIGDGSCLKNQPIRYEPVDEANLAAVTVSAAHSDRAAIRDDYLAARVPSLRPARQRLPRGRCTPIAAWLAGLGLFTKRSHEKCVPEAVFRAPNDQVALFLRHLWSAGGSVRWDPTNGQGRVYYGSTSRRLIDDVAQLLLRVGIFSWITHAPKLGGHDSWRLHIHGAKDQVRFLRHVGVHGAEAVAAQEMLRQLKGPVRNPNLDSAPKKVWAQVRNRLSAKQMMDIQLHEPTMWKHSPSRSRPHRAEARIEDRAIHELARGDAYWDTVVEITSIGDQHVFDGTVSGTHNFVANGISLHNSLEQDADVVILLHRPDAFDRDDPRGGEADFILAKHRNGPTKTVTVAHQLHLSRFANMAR

Protein RecA = biological target: T4, Protein RecA (Mycobacterium tuberculosis, UniProt P9WHJ3); test: Fluorescence Cell-Free Homogeneous Dose Retest to Identify Inhibitors of RecA-Intein Splicing Activity. [Related pubchem assays (depositor defined):AID2097, AID2223, AID489010, AID492950]; type: functional
T4 sequence (P9WHJ3 whole entry): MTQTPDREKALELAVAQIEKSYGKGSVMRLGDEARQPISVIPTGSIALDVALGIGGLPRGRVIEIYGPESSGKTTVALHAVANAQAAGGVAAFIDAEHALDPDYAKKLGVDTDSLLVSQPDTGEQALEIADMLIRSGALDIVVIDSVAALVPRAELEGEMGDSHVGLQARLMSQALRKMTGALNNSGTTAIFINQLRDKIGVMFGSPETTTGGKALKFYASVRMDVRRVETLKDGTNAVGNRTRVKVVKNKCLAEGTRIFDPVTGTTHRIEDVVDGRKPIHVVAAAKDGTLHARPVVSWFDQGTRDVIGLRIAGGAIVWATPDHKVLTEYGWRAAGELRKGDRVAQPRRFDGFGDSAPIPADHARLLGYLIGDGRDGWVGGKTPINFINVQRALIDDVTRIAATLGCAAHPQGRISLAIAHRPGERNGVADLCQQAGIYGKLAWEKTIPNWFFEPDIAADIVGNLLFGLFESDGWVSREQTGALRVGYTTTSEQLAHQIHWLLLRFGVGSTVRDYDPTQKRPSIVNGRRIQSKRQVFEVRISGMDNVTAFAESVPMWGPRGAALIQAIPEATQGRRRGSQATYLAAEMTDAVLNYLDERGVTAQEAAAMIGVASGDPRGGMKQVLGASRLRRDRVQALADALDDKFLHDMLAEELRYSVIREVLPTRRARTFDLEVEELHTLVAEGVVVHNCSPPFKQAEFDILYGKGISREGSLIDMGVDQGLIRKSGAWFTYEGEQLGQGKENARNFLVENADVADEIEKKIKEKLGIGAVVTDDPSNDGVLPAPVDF

Fatty acid synthase [6] = biological target: T5, Fatty acid synthase (Homo sapiens, UniProt P49327); test: FAS thioesterase domain inhibitors, dose response, biochemical, endpoint fluorescence intensity, uHTS hits (AID 624327); type: functional;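 also: fluorescence from hydrolysis of an O-methyl fluorescein acyl ester substrate by the enzyme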
T5 sequence (P49327 whole entry, the tested form may be a part): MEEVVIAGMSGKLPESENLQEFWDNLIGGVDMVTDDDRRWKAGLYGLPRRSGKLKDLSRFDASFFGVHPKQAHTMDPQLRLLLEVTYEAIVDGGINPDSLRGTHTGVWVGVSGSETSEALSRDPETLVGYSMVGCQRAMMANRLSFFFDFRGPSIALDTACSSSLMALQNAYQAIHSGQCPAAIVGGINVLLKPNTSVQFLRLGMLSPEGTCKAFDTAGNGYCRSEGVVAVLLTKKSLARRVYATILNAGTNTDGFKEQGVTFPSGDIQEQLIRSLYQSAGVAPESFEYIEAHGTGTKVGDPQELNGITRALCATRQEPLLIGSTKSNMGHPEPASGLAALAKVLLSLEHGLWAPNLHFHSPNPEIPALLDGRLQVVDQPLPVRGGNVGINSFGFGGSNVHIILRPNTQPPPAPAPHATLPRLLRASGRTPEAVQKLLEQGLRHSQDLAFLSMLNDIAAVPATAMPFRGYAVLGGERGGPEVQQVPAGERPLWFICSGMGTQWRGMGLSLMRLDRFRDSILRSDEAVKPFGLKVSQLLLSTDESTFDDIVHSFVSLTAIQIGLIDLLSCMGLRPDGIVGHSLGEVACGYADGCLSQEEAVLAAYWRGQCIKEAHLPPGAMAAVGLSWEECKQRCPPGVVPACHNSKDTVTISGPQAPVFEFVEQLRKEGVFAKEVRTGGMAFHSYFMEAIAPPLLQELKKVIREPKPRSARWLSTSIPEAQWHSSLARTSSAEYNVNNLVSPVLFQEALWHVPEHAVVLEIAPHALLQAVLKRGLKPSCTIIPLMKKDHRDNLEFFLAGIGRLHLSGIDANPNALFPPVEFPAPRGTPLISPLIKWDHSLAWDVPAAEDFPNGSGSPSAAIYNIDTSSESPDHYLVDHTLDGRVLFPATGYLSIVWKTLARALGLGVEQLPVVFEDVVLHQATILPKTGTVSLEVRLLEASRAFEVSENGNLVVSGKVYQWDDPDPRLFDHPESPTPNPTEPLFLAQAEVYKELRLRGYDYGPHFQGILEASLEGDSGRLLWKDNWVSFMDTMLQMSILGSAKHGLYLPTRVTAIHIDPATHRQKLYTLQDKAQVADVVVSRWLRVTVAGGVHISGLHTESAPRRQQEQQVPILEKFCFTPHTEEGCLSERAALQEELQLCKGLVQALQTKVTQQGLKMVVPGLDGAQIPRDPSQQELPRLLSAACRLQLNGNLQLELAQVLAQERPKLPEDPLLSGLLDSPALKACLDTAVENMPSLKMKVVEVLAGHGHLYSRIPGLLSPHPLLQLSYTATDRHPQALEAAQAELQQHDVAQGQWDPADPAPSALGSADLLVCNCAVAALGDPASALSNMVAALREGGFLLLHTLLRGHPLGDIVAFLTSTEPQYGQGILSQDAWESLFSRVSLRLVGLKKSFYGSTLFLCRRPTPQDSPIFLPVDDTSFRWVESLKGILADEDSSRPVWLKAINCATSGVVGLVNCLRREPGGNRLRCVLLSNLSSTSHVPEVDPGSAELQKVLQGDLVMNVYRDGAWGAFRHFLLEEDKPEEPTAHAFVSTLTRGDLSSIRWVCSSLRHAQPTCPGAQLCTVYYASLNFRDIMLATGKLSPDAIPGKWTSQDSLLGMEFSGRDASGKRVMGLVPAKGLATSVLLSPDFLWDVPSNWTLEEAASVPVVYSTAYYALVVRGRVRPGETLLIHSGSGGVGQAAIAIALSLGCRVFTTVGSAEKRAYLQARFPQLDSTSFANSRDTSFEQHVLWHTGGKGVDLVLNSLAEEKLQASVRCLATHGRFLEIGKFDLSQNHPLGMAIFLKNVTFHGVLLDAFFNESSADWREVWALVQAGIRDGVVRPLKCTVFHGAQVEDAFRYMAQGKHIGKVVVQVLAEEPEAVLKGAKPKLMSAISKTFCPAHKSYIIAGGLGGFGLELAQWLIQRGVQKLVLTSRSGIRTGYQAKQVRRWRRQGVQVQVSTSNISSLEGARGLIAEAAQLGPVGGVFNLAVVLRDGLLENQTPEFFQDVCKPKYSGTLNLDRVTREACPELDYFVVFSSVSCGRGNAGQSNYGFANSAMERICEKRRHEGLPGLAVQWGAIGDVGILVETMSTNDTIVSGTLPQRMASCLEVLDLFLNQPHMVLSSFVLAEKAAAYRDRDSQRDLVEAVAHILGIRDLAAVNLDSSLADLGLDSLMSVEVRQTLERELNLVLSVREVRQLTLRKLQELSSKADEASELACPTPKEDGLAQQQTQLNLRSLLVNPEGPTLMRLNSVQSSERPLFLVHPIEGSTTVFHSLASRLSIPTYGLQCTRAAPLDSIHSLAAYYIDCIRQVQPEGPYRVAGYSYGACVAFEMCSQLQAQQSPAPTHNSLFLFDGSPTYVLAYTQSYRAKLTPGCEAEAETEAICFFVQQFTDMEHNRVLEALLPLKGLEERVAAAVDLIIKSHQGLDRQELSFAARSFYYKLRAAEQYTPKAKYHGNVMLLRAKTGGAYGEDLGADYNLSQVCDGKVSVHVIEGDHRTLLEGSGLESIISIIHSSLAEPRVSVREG

Fatty acid synthase [7] = biological target: T5, Fatty acid synthase; test: FAS thioesterase domain inhibitors, dose response, biochemical, kinetic fluorescence intensity (AID 624326); type: functional;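 also: rate of fluorescence rise from hydrolysis of a fluorogenic O-methyl fluorescein ester substrate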
Vero = Vero cell cytotoxicity, cytotoxicity control for flavivirus capping enzyme inhibitors (AID 588742); type: functional; conditions: Chlorocebus sabaeus
[8] = Vero E6 cell cytotoxicity, dose response, cytotoxicity control for non-replicating M. tuberculosis project, secondary assay (AID 492998); type: functional, VeroE6; conditions: Vero C1008
cells = type: functional
[9] = biological target: T6, DNA repair and recombination protein RAD54-like (Homo sapiens, UniProt Q92698); test: inhibitors of human RAD54 branch migration, confirmation, biochemical, fluorescence, cherry-picked samples, dose series (AID 651657); type: functional
T6 sequence (Q92698 whole entry): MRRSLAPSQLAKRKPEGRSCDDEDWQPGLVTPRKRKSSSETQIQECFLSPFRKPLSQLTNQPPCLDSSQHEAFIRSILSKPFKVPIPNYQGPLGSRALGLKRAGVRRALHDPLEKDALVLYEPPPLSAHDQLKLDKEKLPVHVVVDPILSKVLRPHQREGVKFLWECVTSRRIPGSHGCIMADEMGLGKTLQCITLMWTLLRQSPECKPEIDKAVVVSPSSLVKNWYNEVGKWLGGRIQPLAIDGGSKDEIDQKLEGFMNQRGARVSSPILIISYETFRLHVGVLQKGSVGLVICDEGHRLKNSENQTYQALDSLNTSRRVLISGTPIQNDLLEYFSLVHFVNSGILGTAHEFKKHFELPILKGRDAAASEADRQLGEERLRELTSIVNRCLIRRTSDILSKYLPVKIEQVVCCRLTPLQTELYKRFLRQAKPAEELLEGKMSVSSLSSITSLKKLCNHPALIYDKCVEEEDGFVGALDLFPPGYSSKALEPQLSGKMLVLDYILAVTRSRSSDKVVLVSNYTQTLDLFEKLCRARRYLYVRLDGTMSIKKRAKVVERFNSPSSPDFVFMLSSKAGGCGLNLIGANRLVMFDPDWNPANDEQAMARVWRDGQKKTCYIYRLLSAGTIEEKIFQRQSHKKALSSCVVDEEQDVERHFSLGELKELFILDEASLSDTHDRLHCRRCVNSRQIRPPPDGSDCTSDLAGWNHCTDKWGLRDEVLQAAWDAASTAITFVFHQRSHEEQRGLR

[10] = biological target: T7, RNA-binding protein pos-1 (Caenorhabditis elegans, UniProt G5EF15); test: inhibitors of POS-1/mex-3 RNA binding, dose response, biochemical, fluorescence polarization (AID 1964);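 also: purified POS-1 fused to maltose binding protein made in E. coli; potency of compounds blocking POS-1 binding to fluorescent RNA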
T7 sequence (G5EF15 whole entry): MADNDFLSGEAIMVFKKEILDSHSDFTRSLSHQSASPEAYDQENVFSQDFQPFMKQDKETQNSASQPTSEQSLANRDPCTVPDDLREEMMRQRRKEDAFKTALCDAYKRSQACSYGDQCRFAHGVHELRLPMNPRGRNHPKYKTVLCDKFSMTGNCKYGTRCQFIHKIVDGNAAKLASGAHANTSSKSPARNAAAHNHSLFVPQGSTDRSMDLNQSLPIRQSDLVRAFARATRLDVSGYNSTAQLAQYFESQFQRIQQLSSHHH

[11] = biological target: T8, Zinc finger protein mex-5 (Caenorhabditis elegans, UniProt Q9XUB2); test: MEX-5/TCR-2 RNA interaction inhibitors, dose response, biochemical, C. elegans, fluorescence polarization (AID 1960)
T8 sequence (Q9XUB2 whole entry): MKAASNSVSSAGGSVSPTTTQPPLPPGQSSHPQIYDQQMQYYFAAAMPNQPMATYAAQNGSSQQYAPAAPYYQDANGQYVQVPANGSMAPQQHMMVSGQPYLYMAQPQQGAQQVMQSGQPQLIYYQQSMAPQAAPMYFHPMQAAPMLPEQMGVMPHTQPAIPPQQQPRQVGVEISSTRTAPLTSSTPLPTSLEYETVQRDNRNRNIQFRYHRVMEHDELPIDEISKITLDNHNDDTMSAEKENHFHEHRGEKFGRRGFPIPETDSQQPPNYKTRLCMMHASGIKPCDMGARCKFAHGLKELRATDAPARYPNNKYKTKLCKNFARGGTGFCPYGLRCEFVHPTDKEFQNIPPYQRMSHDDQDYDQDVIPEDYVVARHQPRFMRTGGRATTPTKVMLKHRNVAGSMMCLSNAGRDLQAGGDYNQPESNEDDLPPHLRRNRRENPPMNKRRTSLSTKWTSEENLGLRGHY

Large T antigen = Large T antigen (Simian virus 40, UniProt P03070); type: functional, Betapolyomavirus macacae;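 also: Confirmatory-stage PubChem screen for compounds that inhibit SV40 T antigen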
Chain of Large T antigen (P03070 whole entry): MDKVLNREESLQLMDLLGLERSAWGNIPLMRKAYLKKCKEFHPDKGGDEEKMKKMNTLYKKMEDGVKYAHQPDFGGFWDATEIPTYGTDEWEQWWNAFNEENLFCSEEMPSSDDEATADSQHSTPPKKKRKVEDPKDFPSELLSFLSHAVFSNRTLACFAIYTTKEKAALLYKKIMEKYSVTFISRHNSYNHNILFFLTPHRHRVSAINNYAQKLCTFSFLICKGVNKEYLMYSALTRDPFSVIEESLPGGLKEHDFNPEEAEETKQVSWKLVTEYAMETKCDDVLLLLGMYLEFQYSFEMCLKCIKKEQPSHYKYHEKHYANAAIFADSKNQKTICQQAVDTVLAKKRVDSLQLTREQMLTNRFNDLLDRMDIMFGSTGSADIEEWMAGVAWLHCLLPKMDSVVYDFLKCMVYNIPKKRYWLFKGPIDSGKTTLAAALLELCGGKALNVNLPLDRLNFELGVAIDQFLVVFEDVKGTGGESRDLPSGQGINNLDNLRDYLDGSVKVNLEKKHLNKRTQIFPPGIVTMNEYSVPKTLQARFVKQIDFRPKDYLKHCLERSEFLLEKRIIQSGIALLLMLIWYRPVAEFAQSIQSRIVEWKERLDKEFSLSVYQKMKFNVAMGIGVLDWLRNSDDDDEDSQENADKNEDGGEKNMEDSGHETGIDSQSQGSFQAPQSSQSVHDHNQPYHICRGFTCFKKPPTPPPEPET

Nonstructural protein 1 = Nonstructural protein 1 (Influenza A virus, UniProt Q194T2); type: functional, Influenza A virus (A/California/07/2009(H1N1))
Chain of Nonstructural protein 1 (Q194T2 whole entry): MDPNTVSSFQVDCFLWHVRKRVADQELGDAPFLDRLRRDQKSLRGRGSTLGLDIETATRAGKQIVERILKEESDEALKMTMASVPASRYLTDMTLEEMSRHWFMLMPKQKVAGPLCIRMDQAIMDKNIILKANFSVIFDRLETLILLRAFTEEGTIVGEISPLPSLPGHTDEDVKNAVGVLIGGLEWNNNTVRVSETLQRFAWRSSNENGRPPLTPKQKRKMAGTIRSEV

Genome polyprotein = Genome polyprotein (dengue virus type 2, UniProt P29990); test: Dengue-2 NS5 methyltransferase inhibitors, primary screen, biochemical, confirmation dose response (AID 588689); type: functional
[12] = ZM109 Env clade C HIV-1 fusion inhibitors, dose response, HeLa effector, CEM target cells, luciferase, cherry-pick (AID 652058); type: functional, cell-based

Chain of Glucose-6-phosphate 1-dehydrogenase (P11413 whole entry): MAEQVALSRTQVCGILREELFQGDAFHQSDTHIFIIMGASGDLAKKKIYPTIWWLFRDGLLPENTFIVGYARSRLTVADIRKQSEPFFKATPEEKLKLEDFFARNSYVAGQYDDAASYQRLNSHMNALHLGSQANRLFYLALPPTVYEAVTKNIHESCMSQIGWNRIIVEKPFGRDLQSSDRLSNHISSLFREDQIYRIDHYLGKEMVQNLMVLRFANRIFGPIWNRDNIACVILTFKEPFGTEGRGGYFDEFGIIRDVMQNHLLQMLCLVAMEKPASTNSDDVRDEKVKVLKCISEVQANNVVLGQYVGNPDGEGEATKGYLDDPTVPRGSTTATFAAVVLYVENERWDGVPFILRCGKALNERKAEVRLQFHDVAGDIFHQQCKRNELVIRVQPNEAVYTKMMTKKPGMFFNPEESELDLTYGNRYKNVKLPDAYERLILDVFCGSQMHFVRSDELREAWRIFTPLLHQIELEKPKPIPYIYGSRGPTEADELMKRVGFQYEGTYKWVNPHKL

With COc1ccc(OCc2nnc3n2N=C(c2ccccc2)C(CC(=O)O)S3)cc1 (configuration not stated) the IC50 [1] was > 80 µM (inactive).
For Cc1ccc(C(=O)CNc2cc(C)ccc2C)cc1, the EC50 (Beta-galactosidase) was > 40 µM (inactive) and the IC50 [2] was 9.85 µM (active).
With Cc1nnc(Sc2cc(NCCO)c([N+](=O)[O-])c3nonc23)s1 the IC50 [3] was > 50 µM (not active), the IC50 [4] was 6.12 µM (active) and the IC50 [1] was > 80 µM (inactive). For the same compound, the AC50 [5] was 19.8 µM (inconclusive), the EC50 (Protein RecA) was 12.4 µM (active) and the IC50 (Fatty acid synthase [6]) was 6.34 µM (active). For the same compound, the IC50 (Fatty acid synthase [7]) was 5.35 µM (active).
For CCOc1ccccc1N1CCN(C2=C(NS(=O)(=O)c3cccs3)C(=O)c3ccccc3C2=O)CC1, the CC50 (Vero) was > 40 µM (active).
For Cc1ccc(C(=O)Nc2nnc(-c3ccncc3)o2)cc1, the CC50 [8] was > 20 µM (active) and the IC50 (cells) was 8.2 µM (active).
In the case of O=C(CCNc1cccc(Cl)c1)c1ccco1, the CC50 [8] is reported as 18.8 µM (active) and the IC50 (cells) is reported as 18 µM (active).
With CCN(CC)CCCNC(=O)C1CCN(c2ncnc3c2sc2cccc(F)c23)CC1 the AC50 [9] was 52 µM (active).
For COc1cc(N)c2ncccc2c1Cl, the IC50 [1] was 69.4 µM (inactive).
With C=CCNC1=NN=C(c2cc(C)n(CC=C)c2C)CS1 the CC50 (Vero) was > 40 µM (active).
In the case of CCN1CCc2c(sc(NC(=O)c3ccc(C(=O)c4ccccc4)cc3)c2C(N)=O)C1, the AC50 [9] is reported as 36.6 µM (active).
In the case of CCN(CC)C(=O)c1ccc2c(c1)C1C(Cl)C(Sc3ccccc3[N+](=O)[O-])CC1C(C(=O)O)N2 (configuration not stated), the EC50 [10] is reported as > 300 µM (inconclusive), the EC50 [11] is reported as 15.4 µM (inconclusive) and the IC50 (Large T antigen) is reported as 35.4 µM (active). The IC50 (Nonstructural protein 1) was 17.7 µM (active), the AC50 [5] was 4.63 µM (active) and the EC50 (Protein RecA) was 17 µM (active). For the same compound, the IC50 (Genome polyprotein) was 59.1 µM (active).
For CCOCCCN=C(S)Nc1ccc2nc(N3CCCC3)cc(C)c2c1, the AC50 [9] was 100 µM (inactive).
With Cc1cc(C)nc(NNS(=O)(=O)c2ccc(F)c(Cl)c2)n1 the EC50 (Beta-galactosidase) was > 40 µM (inactive) and the IC50 [2] was 23.9 µM (not active).
In the case of COc1cc([N+](=O)[O-])ccc1-c1ccc(/C=C2\C(=O)ON=C2c2ccccc2)o1, the CC50 (Vero) is reported as 22.1 µM (active).
For Cc1c(C(=O)N(Cc2ccccc2Cl)C2CCS(=O)(=O)C2)oc2ccccc12 (configuration not stated), the IC50 [1] was 40.3 µM (inactive).
With O=C(C[C@@H]1C[C@@H]2c3cc(NC(=O)C4CCOCC4)ccc3O[C@@H]2[C@H](CO)O1)NCCc1ccccc1 the AC50 [12] was 37.3 µM (active).
